Tests used:
Assay type in all cases: in vivo
Details in all cases: 312 h, rate 250 g/ha, evaluated after 13 days, 100=total damage to plant, 0=no damage to plant
[1] = tested on: Alopecurus myosuroides (ALOMY); assay: Pre-emergence herbicidal activity, glasshouse pot test
Description: (§1) Seeds of a variety of test species were sown in standard soil in pots. After cultivation for one day (pre-emergence) or after 8 days cultivation (post-emergence) under controlled conditions in a glasshouse (at 24/16° C., day/night; 14 hours light; 65% humidity), the plants were sprayed with an aqueous spray solution derived from the formulation of the technical active ingredient in acetone/water (50:50) solution containing 0.5% Tween 20 (polyoxyethelyene sorbitan monolaurate, CAS RN 9005-64-5). The test plants were then grown in a glasshouse under controlled conditions in a glasshouse (at 24/16° C., day/night; 14 hours light; 65% humidity) and watered twice daily. After 13 days for pre and post-emergence, the test was evaluated (100=total damage to plant; 0=no damage to plant). Test Plants: Lolium perenne (LOLPE), Alopecurus myosuroides (ALOMY), Echinochloa crus-galli (ECHCG), and Avena fatua (AVEFA). Pre-Emergence Activity

Lolium perenne (LOLPE) [2] = assay: as above
Description: as §1

Avena fatua (AVEFA) [3] = assay: as above
Description: as §1

[4] = tested on: Echinochloa crus-galli (ECHCG); assay: as above
Description: as §1

[5] = tested on: Alopecurus myosuroides (ALOMY); assay: Post-emergence herbicidal activity, glasshouse pot test
Description: as §1, with “Post-Emergence” for “Pre-Emergence”

Lolium perenne (LOLPE) [6] = assay: as above
Description: as §1, with “Post-Emergence” for “Pre-Emergence”

Avena fatua (AVEFA) [7] = assay: as above
Description: as §1, with “Post-Emergence” for “Pre-Emergence”

[8] = tested on: Echinochloa crus-galli (ECHCG); assay: as above
Description: as §1, with “Post-Emergence” for “Pre-Emergence”

Row | SMILES | pest or weed control at 250 g/ha [1] [%] | pest or weed control at 250 g/ha (Lolium perenne (LOLPE) [2]) [%] | pest or weed control at 250 g/ha (Avena fatua (AVEFA) [3]) [%] | pest or weed control at 250 g/ha [4] [%] | pest or weed control at 250 g/ha [5] [%] | pest or weed control at 250 g/ha (Lolium perenne (LOLPE) [6]) [%] | pest or weed control at 250 g/ha (Avena fatua (AVEFA) [7]) [%] | pest or weed control at 250 g/ha [8] [%]
1 | CCc1ccc(Oc2ccc3cc(Cl)ccc3n2)cc1C1=C(O)CCC1=O [Compound A-43] | 40 | 50 | 10 | 60 | 60 | 30 | 30 | 100
2 | CCc1ccc(Oc2ccc(Cl)cc2Cl)cc1C1=C(O)[C@H]2[C@@H](C1=O)[C@@H]1CC[C@H]2O1 [Compound A-44] | 80 | 90 | 80 | 80 | 80 | 90 | 80 | 80
3 | CCc1ccc(Oc2ccc(Cl)c(F)c2)cc1C1=C(O)[C@H]2[C@@H](C1=O)[C@@H]1CC[C@H]2O1 [Compound A-45] | 90 | 90 | 90 | 100 | 90 | 90 | 90 | 100
4 | CCc1ccc(Oc2ccc(F)cc2)cc1C1=C(O)[C@H]2[C@@H](C1=O)[C@@H]1CC[C@H]2O1 [Compound A-46] | 80 | 80 | 60 | 100 | 80 | 80 | 60 | 100
5 | CCc1ccc(Oc2cccc(Br)c2)cc1C1=C(O)[C@H]2[C@@H](C1=O)[C@@H]1CC[C@H]2O1 [Compound A-47] | 60 | 70 | 30 | 90 | 60 | 70 | 30 | 90
6 | CCc1ccc(Oc2ccc(Br)c(Cl)c2)cc1C1=C(O)[C@H]2[C@@H](C1=O)[C@@H]1CC[C@H]2O1 [Compound A-48] | 80 | 80 | 80 | 90 | 80 | 80 | 80 | 90
7 | CCc1ccc(Oc2ccc(F)c(Cl)c2)cc1C1=C(O)[C@H]2[C@@H](C1=O)[C@@H]1CC[C@H]2O1 [Compound A-49] | 90 | 100 | 90 | 100 | 90 | 100 | 90 | 100
8 | CCc1ccc(Oc2ccc(OC(F)(F)F)cc2)cc1C1=C(O)[C@H]2[C@@H](C1=O)[C@@H]1CC[C@H]2O1 [Compound A-50] | 100 | 100 | 100 | 100 | 100 | 100 | 100 | 100
9 | CCc1ccc(Oc2cnc3cc(Cl)ccc3n2)cc1C1=C(O)[C@H]2[C@@H](C1=O)[C@@H]1CC[C@H]2O1 [Compound A-51] | 100 | 100 | 90 | 90 | 100 | 100 | 90 | 90
10 | O=C1CCC(O)=C1c1cc(Oc2ccc(Cl)cc2)ccc1OC(F)(F)F [Compound A-52, 2-[5-(4-chlorophenoxy)-2-trifluoromethoxyphenyl]cyclopentane-1,3-dione] | 0 | 0 | 0 | 0 | 0 | 0 | 0 | 50
11 | CCc1ccc(Oc2ccc3cc(Cl)ccc3n2)cc1C1=C(O)C2C3CCC(CC3)C2C1=O (stereo not shown) [Compound A-53] | 80 | 80 | 0 | 100 | 80 | 90 | 80 | 90
12 | O=C1CCC(O)=C1c1cc(Oc2ccc(Cl)cc2)ccc1C1CC1 [Compound A-54, 2-[5-(4-chlorophenoxy)-2-cyclopropylphenyl]cyclopentane-1,3-dione] | 0 | 0 | 0 | 0 | 0 | 0 | 10 | 80
13 | CCc1ccc(Oc2ccc(C#N)c(Cl)c2)cc1C1=C(O)CCC1=O [Compound A-56] | 30 | 50 | 20 | 60 | 20 | 20 | 0 | 70
14 | CCc1ccc(Oc2ccc(C(F)(F)F)cn2)cc1C1=C(O)CCC1=O [Compound A-60] | 80 | 80 | 70 | 100 | 90 | 80 | 80 | 100
15 | CCc1ccc(Oc2cnc3ccccc3n2)cc1C1=C(O)CCC1=O [Compound A-67] | 60 | 100 | 40 | 100 | 70 | 80 | 20 | 100
16 | CCc1ccc(Oc2ccc(C(F)(F)F)c(C#N)c2)cc1C1=C(O)CCC1=O [Compound A-70] | 0 | 20 | 10 | 60 | 0 | 10 | 0 | 60
17 | CCc1ccc(Oc2ncc(C(F)(F)F)cc2C(F)(F)F)cc1C1=C(O)CCC1=O [Compound A-71] | 90 | 100 | 80 | 100 | 100 | 100 | 100 | 100
18 | CCc1ccc(Oc2ncc(Br)cn2)cc1C1=C(O)CCC1=O [Compound A-72] | 40 | 70 | 30 | 100 | 50 | 30 | 30 | 100
19 | CCc1ccc(Oc2nc3ccc(OC)cc3s2)cc1C1=C(O)CCC1=O [Compound A-75] | 30 | 80 | 20 | 100 | 10 | 20 | 0 | 40
20 | CCc1ccc(Oc2ccc(C(F)(F)F)cc2[N+](=O)[O-])cc1C1=C(O)CCC1=O [Compound A-76] | 20 | 50 | 0 | 100 | 50 | 30 | 80 | 80
